Data on 20 compounds can be found in patent US20020059032A1, “Rational selection of putative peptides from identified nucleotide or peptide sequences” (priority 1999, published 2002).

pIC50: −log10 of the molar value. Where a SMILES comes first, the peptide text is derived from it.

In the test the target is guinea pig brain membranes. Put plainly: Binding test with guinea pig brain membranes. The note with it: tested on guinea pig brain membranes; read-out: IC50 = 100 μM. Here is the method:
Binding Assay Alternative Protocol by Skatron
The experimental conditions are identical for all the binding assay protocols except for the fact that: i) the volume R in operation is 200 μl; ii) the test carried out in 96-well Falcon plates iii) the reaction is directly stopped by filtration on filterMat (ref. 11734) Skatron and the radioactivity associated with the filtrate is evaluated: either directly with a γ counter for the peptides labelled with […]: or with a […] in the presence of 5 ml of scintillating liquid.
Membrane Preparations of Guinea Pig Brains and Binding Assay
The guinea pigs are sacrificed by rupturing their cervical vertibrae, decapitated, and the brains are removed very rapidly and placed into a sucrose-Tris-HCl buffer (0.32 M sucrose 5 mM, Tris-HCl, 0.1 g/l bacitracin) at 4° C. (about 10 ml of buffer per brain). The brains are then homogenized using a Potter device and the homogenate is placed in incubation for 30 minutes at 37° C. under agitation, then centrifuged twice for 35 minutes at 100,000×g at 4° C. The protein content of the membrane preparations is evaluated according to the Bradford method (BioRad, according to the manufacturers protocol).
Bonding of Labelled Agonists to the Guinea Pig Brain Membrane Preparation The membranes are placed in a buffer (50 mM of Tris-HCl, 5 mM of MgCl2 and 0.1 g/l of bacitracin) at the desired protein concentration (iodized CCK bond, 0.1 mg of protein/ml; iodized gastrin bond: 0.5 mg of proteins/ml). They are then incubated in the presence of a labelled ligand in a total volume of 500 μl (about 10 pM for the iodized CCK8, 20 pM for the iodized gastrin13), 50-80 minutes at 25° C., and in the presence or absence of cold agonists. The reaction is stopped with 3 ml of additional BSA buffer (20 g/l) at 4° C., the tubes are centrifuged at 10,000×g, the supernatant is drawn off and the radioactivity associated with the precipitate is evaluated with a γ counter.
As to `CC(C)C[C@H](NC(=O)[C@H](CC(C)C)NC(=O)[C@@H](N)CO)C(=O)N[C@@H](CO)C(=O)N[C@@H](CCCCN)C(=O)N[C@H](C(=O)N[C@@H](CO)C(=O)N[C@@H](CCC(N)=O)C(N)=O)C(C)C` [Example 7, H-SLLSKVSQ-NH2] (H-SLLSKVSQ-NH2), the pIC50 was 6.37.
On to `CSCC[C@H](NC(=O)[C@H](CCC(N)=O)NC(=O)[C@H](CC(C)C)NC(=O)[C@H](CCCCN)NC(=O)[C@@H]1CCCN1C(=O)[C@H](CC(=O)O)NC(=O)[C@H](CCC(N)=O)NC(=O)[C@@H](NC(=O)[C@@H](N)C(C)C)[C@@H](C)O)C(N)=O` [Example 8, H-VTQDPKLQM-NH2] (H-VTQDPKLQM-NH2), for which the pIC50 was 5.38.
To `CC[C@H](C)[C@H](NC(=O)[C@H](C)NC(=O)[C@@H](NC(=O)[C@H](CCC(=O)O)NC(=O)[C@H](CCC(=O)O)NC(=O)[C@@H]1CCCN1C(=O)[C@H](Cc1ccccc1)NC(=O)[C@@H](N)CC(=O)O)C(C)C)C(=O)N[C@H](C(=O)N[C@@H](CCC(=O)O)C(=O)N[C@@H](CCC(=O)O)C(=O)N[C@@H](CC(C)C)C(N)=O)C(C)C` [Example 9, H-DFPEEVAIVEEL-NH2] (H-DFPEEVAIVEEL-NH2) belongs 6.66; to `CSCC[C@H](N)C(=O)N[C@@H](CC(=O)O)C(=O)N[C@H](C(=O)NCC(=O)NCC(=O)N[C@@H](CC(C)C)C(=O)N[C@@H](CO)C(=O)N[C@@H](CC(=O)O)C(=O)N1CCC[C@H]1C(=O)N[C@@H](Cc1ccc(O)cc1)C(=O)N[C@H](C(=O)N[C@@H](CCCCN)C(=O)N[C@H](C(=O)N[C@@H](Cc1c[nH]cn1)C(=O)N[C@@H](CC(C)C)C(=O)N[C@@H](CC(C)C)C(=O)N[C@@H](CCC(N)=O)C(=O)NCC(N)=O)C(C)C)C(C)C)C(C)C` [Example 10, H-MDVGGLSDPYVKVHLLQG-NH2] (H-MDVGGLSDPYVKVHLLQG-NH2), 7.52; to `CC(C)C[C@H](NC(=O)[C@H](CO)NC(=O)[C@@H]1CCCN1C(=O)[C@@H](N)CC(=O)O)C(=O)N1CCC[C@H]1C(=O)N[C@H](C(=O)N[C@@H](C)C(=O)N[C@@H](CO)C(=O)N[C@@H](CO)C(=O)N[C@@H](CO)C(=O)N[C@@H](CO)C(=O)N[C@@H](CO)C(=O)N[C@@H](CO)C(=O)N[C@@H](CO)C(=O)N[C@@H](CCCCN)C(=O)N[C@@H](CCCNC(=N)N)C(N)=O)C(C)C` [Example 11, H-DPSLPVASSSSSSSKR-NH2] (H-DPSLPVASSSSSSSKR-NH2), 6.57.
On to `CC[C@H](C)[C@H](NC(=O)[C@@H]1CCCN1C(=O)[C@@H](NC(=O)[C@H](Cc1ccccc1)NC(=O)[C@H](CC(C)C)NC(=O)[C@@H](NC(=O)[C@H](CO)NC(=O)CNC(=O)[C@H](CC(C)C)NC(=O)[C@H](CC(C)C)NC(=O)[C@@H]1CCCN1)[C@@H](C)O)[C@@H](C)CC)C(N)=O` [Example 12, H-PLLGSTLFIPI-NH2] (H-PLLGSTLFIPI-NH2), for which the pIC50 is 7.70.
Under `CSCC[C@H](NC(=O)[C@H](CCC(N)=O)NC(=O)[C@H](Cc1ccccc1)NC(=O)CNC(=O)[C@H](CO)NC(=O)[C@@H](N)CC(=O)O)C(=O)N[C@@H](CC(N)=O)C(=O)N[C@@H](CCC(N)=O)C(=O)N[C@@H](CC(C)C)C(=O)N[C@@H](CCCNC(=N)N)C(N)=O` [Example 13, H-DSGFQMNQLR-NH2] (H-DSGFQMNQLR-NH2) stands 7.05.
To `CSCC[C@H](NC(=O)[C@@H](NC(=O)[C@H](CCC(=O)O)NC(=O)[C@H](CCC(=O)O)NC(=O)[C@H](CC(C)C)NC(=O)[C@H](CCC(N)=O)NC(=O)[C@@H](N)CC(C)C)[C@@H](C)O)C(=O)N1CCC[C@H]1C(=O)N[C@@H](CO)C(=O)N1CCC[C@H]1C(=O)N[C@@H](Cc1ccc(O)cc1)C(N)=O` [Example 14, H-LQLEETMPSPY-NH2] (H-LQLEETMPSPY-NH2) belongs 6.07; to `CC[C@H](C)[C@H](NC(=O)[C@H](CO)NC(=O)[C@@H](N)Cc1ccccc1)C(=O)N[C@@H](C)C(=O)N[C@H](C(=O)N[C@@H](CC(C)C)C(=O)N[C@@H](CCCNC(=N)N)C(=O)N[C@@H](CC(=O)O)C(=O)N[C@@H](Cc1ccccc1)C(=O)NCC(=O)N[C@H](C(N)=O)C(C)C)[C@@H](C)O` [Example 15, H-FSIATLRDFGV-NH2] (H-FSIATLRDFGV-NH2), 6.44.
Regarding `CSCC[C@H](NC(=O)CNC(=O)[C@H](Cc1ccccc1)NC(=O)[C@H](CC(=O)O)NC(=O)[C@H](CCCNC(=N)N)NC(=O)[C@H](CCSC)NC(=O)[C@@H](NC(=O)[C@@H](NC(=O)[C@@H](NC(=O)[C@H](CO)NC(=O)[C@@H](N)Cc1ccccc1)C(C)C)[C@@H](C)O)[C@@H](C)O)C(N)=O` [Example 16, H-FSVTTMRDFGM-NH2] (H-FSVTTMRDFGM-NH2), the pIC50 is 7.10.
For `CC(C)C[C@H](NC(=O)[C@H](CCC(=O)O)NC(=O)[C@H](CC(=O)O)NC(=O)[C@H](CC(C)C)NC(=O)[C@@H](NC(=O)[C@H](Cc1ccccc1)NC(=O)[C@H](C)NC(=O)[C@H](Cc1c[nH]cn1)NC(=O)[C@H](CO)NC(=O)[C@H](CO)NC(=O)[C@@H](N)CC(=O)O)[C@@H](C)O)C(=O)N[C@@H](CCCNC(=N)N)C(N)=O` [Example 17, H-DSSHAFTLDELR-NH2] (H-DSSHAFTLDELR-NH2), the pIC50 was 6.17.
`CSCC[C@H](NC(=O)[C@@H](N)CC(=O)O)C(=O)N[C@H](C(=O)N[C@H](C(=O)N[C@@H](Cc1ccccc1)C(=O)N[C@@H](CC(C)C)C(=O)N[C@@H](CC(=O)O)C(=O)NCC(=O)NCC(=O)N[C@@H](CCC(N)=O)C(=O)N[C@@H](CC(C)C)C(=O)NCC(=O)N[C@H](C(=O)N[C@@H](CC(C)C)C(=O)N[C@H](C(N)=O)C(C)C)[C@@H](C)O)C(C)C)C(C)C` [Example 18, H-DMVVFLDGGQLGTLV-NH2] (H-DMVVFLDGGQLGTLV-NH2): the pIC50 is 6.10.
Consider `CC[C@H](C)[C@H](NC(=O)[C@H](Cc1c[nH]cn1)NC(=O)[C@@H](N)CC(C)C)C(=O)N[C@@H](CO)C(=O)N[C@@H](Cc1c[nH]cn1)C(=O)N[C@@H](CC(=O)O)C(=O)N[C@@H](CCSC)C(=O)N[C@H](C(=O)NCC(=O)N1CCC[C@H]1C(=O)N[C@@H](CC(=O)O)C(N)=O)[C@@H](C)O` [Example 19, H-LHISHDMTGPD-NH2] (H-LHISHDMTGPD-NH2), for which the pIC50 is 6.15.
Under `CC[C@H](C)[C@H](NC(=O)CNC(=O)[C@H](CCC(=O)O)NC(=O)[C@H](CC(C)C)NC(=O)[C@@H](N)CO)C(=O)N[C@@H](Cc1ccccc1)C(=O)N[C@@H](CC(=O)O)C(=O)N[C@@H](CC(=O)O)C(=O)N[C@H](C(=O)N[C@H](C(=O)N1CCC[C@H]1C(=O)N[C@@H](CC(=O)O)C(N)=O)C(C)C)[C@@H](C)CC` [Example 20, H-SLEGIFDDIVPD-NH2] (H-SLEGIFDDIVPD-NH2) stands 6.46; under `CSCC[C@H](NC(=O)[C@H](Cc1ccccc1)NC(=O)[C@H](Cc1ccc(O)cc1)NC(=O)[C@H](CC(N)=O)NC(=O)[C@@H](N)CO)C(=O)N1CCC[C@H]1C(=O)N[C@@H](Cc1ccccc1)C(=O)N[C@@H](CO)C(=O)N[C@@H](C)C(N)=O` [Example 21, H-SNYFMPFSA-NH2] (H-SNYFMPFSA-NH2), 6.80; under `CC[C@H](C)[C@H](NC(=O)[C@H](CO)NC(=O)[C@H](Cc1ccccc1)NC(=O)[C@@H]1CCCN1C(=O)[C@@H](NC(=O)[C@H](Cc1ccccc1)NC(=O)[C@H](C)NC(=O)[C@H](CC(=O)O)NC(=O)[C@@H](N)CO)C(C)C)C(N)=O` [Example 22, H-SDAFVPFSI-NH2] (H-SDAFVPFSI-NH2), 5.55.
Under `CC(C)C[C@H](NC(=O)[C@H](C)NC(=O)CNC(=O)[C@@H](NC(=O)[C@@H](N)CCCNC(=N)N)[C@@H](C)O)C(=O)N[C@H](C(=O)N[C@@H](CC(C)C)C(=O)N[C@@H](CO)C(=O)N[C@@H](CCCNC(=N)N)C(=O)NCC(N)=O)C(C)C` [Example 23, H-RTGALVLSRG-NH2] (H-RTGALVLSRG-NH2) stands 5.89; under `C[C@H](NC(=O)[C@H](CCC(=O)O)NC(=O)[C@@H]1CCCN1C(=O)[C@H](CCC(N)=O)NC(=O)[C@H](Cc1ccccc1)NC(=O)[C@H](CO)NC(=O)[C@H](CO)NC(=O)[C@@H](N)CCC(=O)O)C(=O)NCC(=O)N[C@@H](Cc1ccccc1)C(N)=O` [Example 24, H-ESSFQPEAGF-NH2] (H-ESSFQPEAGF-NH2), 6.64.
To `CC[C@H](C)[C@H](NC(=O)[C@@H]1CCCN1C(=O)CNC(=O)CN)C(=O)N[C@@H](CO)C(=O)N[C@@H](Cc1ccccc1)C(=O)N[C@@H](CO)C(=O)N[C@@H](CO)C(=O)N[C@@H](CO)C(=O)N[C@@H](CCCNC(=N)N)C(=O)N[C@@H](CO)C(N)=O` [Example 25, H-GGPISFSSSRS-NH2] (H-GGPISFSSSRS-NH2) belongs 6.51; to `CC(C)C[C@H](NC(=O)[C@H](CO)NC(=O)[C@@H](NC(=O)[C@H](CC(=O)O)NC(=O)[C@@H](N)CO)[C@@H](C)O)C(=O)N[C@H](C(=O)N[C@@H](Cc1c[nH]c2ccccc12)C(=O)N[C@@H](CC(N)=O)C(=O)N[C@@H](CO)C(=O)N[C@H](C(=O)N[C@@H](CCCCN)C(N)=O)C(C)C)[C@@H](C)O` [Example 27, H-SDTSLTWNSVK-NH2] (H-SDTSLTWNSVK-NH2), 6.17.

The term pIC50 denotes −log10 of the IC50, conventionally taken in molar units.
